# From PubChem BioAssay (NCI)
# “And” between values parts separate entries of the source, which are not always exact repeats. Equal entries are not always repeated.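 Five concentrations, 48 hours, 96-well plates. At the GI50, growth is halved. The concentration for full growth arrest is given as TGI.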
# Experiments:
# Test in all cases: NCI anticancer screen, dose series, 48 h
# HL-60(TB) leukemia = system: HL-60(TB) leukemia
# HCC-2998 colon = system: HCC-2998 colon
# SK-MEL-28 melanoma = system: SK-MEL-28 melanoma
# RXF 393 renal = system: RXF 393 renal
# MCF7 breast = system: MCF7 breast
# NCI-H522 lung = system: NCI-H522 lung
# UO-31 renal = system: UO-31 renal
# SK-MEL-2 melanoma = system: SK-MEL-2 melanoma
# OVCAR-5 ovarian = system: OVCAR-5 ovarian
# K-562 leukemia = system: K-562 leukemia
SMILES,TGI (HL-60(TB) leukemia),GI50 (HCC-2998 colon),TGI (HCC-2998 colon),TGI (SK-MEL-28 melanoma),TGI (RXF 393 renal),GI50 (MCF7 breast),TGI (MCF7 breast),GI50 (NCI-H522 lung),TGI (NCI-H522 lung),GI50 (UO-31 renal),TGI (UO-31 renal),TGI (SK-MEL-2 melanoma),TGI (OVCAR-5 ovarian),GI50 (K-562 leukemia),TGI (K-562 leukemia),GI50 (HL-60(TB) leukemia),GI50 (SK-MEL-28 melanoma),GI50 (RXF 393 renal),GI50 (SK-MEL-2 melanoma),GI50 (OVCAR-5 ovarian)
CCCCCCCCCCCCCCCCOP(=O)(O)OP(=O)(O)OCC1OC(n2ccc(N)nc2=O)C(O)C1O (stereo not drawn),> 100 µM,> 100 µM and 36.8 µM,> 100 µM,> 100 µM,> 100 µM,> 100000 nM and 19300 nM,> 100 µM,> 100000 nM,> 100 µM,> 100000 nM and 21800 nM,> 100 µM,> 100 µM,> 100 µM,> 100000 nM and 41800 nM,> 100 µM,–,–,–,–,–
COC(=O)/C=C/c1cn(C(C)=O)c2ccc(Br)cc12,> 100 µM,21.8 µM,64.8 µM,> 100 µM,> 100 µM,15700 nM,> 100 µM,21000 nM,97.5 µM,8730 nM,48.5 µM,> 100 µM,> 83.3 µM,967 nM,> 23 µM,15300 nM,49000 nM,26900 nM,29500 nM,31000 nM
COc1ccc(-c2c(-c3cc(OC)c(OC)c(OC)c3)noc2N)cc1,0.0589 µM,0.0197 µM,25.1 µM,> 100 µM,19.8 µM,< 10 nM,19.1 µM,< 10 nM,–,–,> 100 µM,81.4 µM,> 70 µM,< 10 nM,> 100 µM,21.5 nM,16 nM,< 10 nM,18.8 nM,44.1 nM
C=CN(C)S(C)(=O)=O,> 100 µM,> 100 µM,> 100 µM,> 100 µM,> 100 µM,> 100000 nM,> 100 µM,> 100000 nM,> 100 µM,> 100000 nM,> 100 µM,> 100 µM,> 100 µM,> 100000 nM,> 100 µM,> 100000 nM,> 100000 nM,> 100000 nM,> 100000 nM,> 100000 nM
CC1=C([Te]c2ccc(O)cc2)C(=O)c2ccccc2C1=O,5 µM,2.88 µM,9.66 µM,6.09 µM,9.46 µM,1490 nM,4.08 µM,2160 nM,7.31 µM,1560 nM,4.98 µM,8.15 µM,7.75 µM,1930 nM,4.36 µM,1830 nM,2410 nM,2420 nM,2780 nM,2440 nM
CCc1cc2c(cc1N1CCC(N3CCOCC3)CC1)C(C)(C)c1[nH]c3cc(C#N)ccc3c1C2=O,> 100 µM,4.33 µM and 3.73 µM,> 43.7 µM and 17.8 µM and > 10 µM,4.48 µM and 4.04 µM and 6.75 µM,3.47 µM and 3.78 µM and 3.84 µM,1660 nM and 1640 nM and 1340 nM,> 23.8 µM and 15.6 µM and > 10 µM,1170 nM and 1690 nM and 1480 nM,3.81 µM and 4.88 µM and 5.85 µM,1230 nM and 1130 nM and 1000 nM,3.12 µM and 2.75 µM and 2.72 µM,9.13 µM and 9.77 µM and > 10 µM,19.3 µM and 9.3 µM and > 10 µM,3760 nM and 2120 nM and 1940 nM,> 41.9 µM and 13.9 µM and > 10 µM,1700 nM and 1020 nM and 443 nM,1950 nM and 1870 nM and 2320 nM,1500 nM and 1530 nM,2620 nM and 2860 nM and 5460 nM,1520 nM and 1290 nM and 1930 nM
O=C(NO)c1ccc(Cn2c(=O)n(-c3ccccc3F)c(=O)c3ccccc32)cc1,> 100 µM,1.42 µM,2.96 µM,4.25 µM,2.9 µM,2210 nM,> 100 µM,542 nM,2.05 µM,1830 nM,4.75 µM,3.43 µM,7 µM,2620 nM,> 100 µM,3480 nM,1770 nM,1330 nM,1290 nM,1450 nM
COc1cc(OC)c(NC(=O)c2cc3ccccc3cc2O)cc1Cl,7.99 µM,3.73 µM,13.8 µM,17.3 µM,8.51 µM,2510 nM,9.08 µM,2560 nM,6.12 µM,1710 nM,8.33 µM,6.14 µM,34.5 µM,4420 nM,> 100 µM,1910 nM,3600 nM,3820 nM,2250 nM,4700 nM
CCN(CC)CCCC(C)N=c1cc(Nc2cc(=NC(C)CCCN(CC)CC)c3cc(OC)ccc3o2)oc2ccc(OC)cc12 (stereo not drawn),13.2 µM,1.85 µM,7.14 µM,1.52 µM,1.17 µM,1080 nM,3.68 µM,1040 nM,2.15 µM,874 nM,4.9 µM,2.71 µM,2.38 µM,1190 nM,4.76 µM,2660 nM,838 nM,528 nM,1350 nM,890 nM
C[C@H]1[C@H]2[C@H]3CC[C@@H]4[C@@]5(C)C/C(=C/c6cccnc6)C(=O)C(C)(C)[C@@H]5CC[C@@]4(C)[C@]3(C)CC[C@]23CO[C@]1(C)[C@@H](C(=O)/C=C\c1cccnc1)C3,2.53 µM,0.868 µM,1.67 µM,2.2 µM,1.56 µM,842 nM,6.25 µM,1150 nM,3.07 µM,675 nM,1.37 µM,2.83 µM,4.43 µM,151 nM,> 50 µM,794 nM,1020 nM,824 nM,1210 nM,1460 nM
C/C(=C\COc1c2c(cc3c1CCO3)OC1(C=C2)OC(CC/C(C)=C/COc2c3ccoc3cc3oc(=O)ccc23)C(C)(C)O1)CCC(O)C(C)(C)O (stereo not drawn),20.9 µM,89.6 µM,> 100 µM,> 100 µM,> 100 µM,5620 nM,> 100 µM,24300 nM,> 100 µM,25700 nM,> 100 µM,> 100 µM,> 100 µM,3820 nM,> 100 µM,3610 nM,16900 nM,79800 nM,9580 nM,80200 nM
COc1ccc(OC)c(-c2cc(=O)c3c(OC)c(OC)c(OC)c(OC)c3o2)c1,> 100 µM,–,92.1 µM,> 100 µM,77.7 µM,–,55.5 µM,–,46.4 µM,–,> 100 µM,49.3 µM,> 100 µM,–,> 100 µM,–,–,–,–,–
COc1cc(-c2ncn(/C=C\C(=O)OC(C)C)n2)cc(C(F)(F)F)c1,4.58 µM and 4.07 µM,0.102 µM and 0.659 µM,1.41 µM and 3.82 µM,2.24 µM and 8.58 µM,0.0824 µM and 0.0725 µM,36.4 nM and 47.7 nM,1.67 µM and 10.4 µM,28.6 nM and 53.5 nM,0.734 µM and 0.597 µM,56.9 nM and 48.9 nM,4.18 µM and 11.7 µM,1.53 µM and 0.489 µM,17.3 µM and 14.8 µM,51 nM and 60.8 nM,10.2 µM and 16.2 µM,51.5 nM and 51 nM,46.1 nM and 69.3 nM,< 13.9 nM and 14.6 nM,67.6 nM and 50.1 nM,196 nM and 154 nM
